Assay results as given in patent US12214036B2, “Combination therapy comprising AXL/MER and PD-1/PD-L1 inhibitors” (Incyte Corporation, priority 2020, dated 2025).

Assays:
[1] = system: TYRO3-expressing BAF3 cells; assay: BAF3-TYRO3 cell proliferation assay (CellTiter-Glo); assay type: cell-based, mouse
From the text: (§1) To evaluate the cellular potency and selectivity within the TAM receptor family, mouse BAF3 cell lines with stable expression of AXL, MER, or TYRO3 were generated.
(§2) The cytoplasmic domain of AXL, MER, or TYRO3 fused with dimerization sequence and HA tag was cloned into a pMSCV (murine stem cell virus) vector with a puromycin-resistance marker to generate three constructs individually by electroporation into BAF3 cells. Single clones that were IL-3-independent and puromycin-resistant were selected and characterized. To evaluate effects on BAF3 cell proliferation, 1000 cells/well of BAF3, BAF3-AXL, BAF3 MER, or BAF3-TYRO3 cells were treated in the presence or absence of Compound 1 at various concentrations (10 concentration points with a three-fold dilution factor from the highest concentration of 10 μM) diluted in RPMI-1640 with 2% FBS for 48 hours in a 384-well plate. Cell viability was measured by ATP assay (CellTiter-Glo Assay, Promega, Madison, Wis.) according to the manufacturer's procedure. The data were converted to percent inhibition relative to DMSO control, and IC50 curves were fitted using GraphPad Prism software.

parental BAF3 cells = assay: Parental BAF3 cell proliferation assay (CellTiter-Glo); assay type: cell-based; conditions: Mus musculus, 48 hours, 2% FBS
From the text: as §1, §2

MER = target: T1, MER (Homo sapiens, UniProt Q12866); assay: TR-FRET kinase assay, cMER; assay type: biochemical
T1 construct: recombinant phosphorylated forms of the kinase domains for AXL, MER and TYRO3; purchased Carna Biosciences 08-108
T1 sequence (Q12866 587-858 limits assumed): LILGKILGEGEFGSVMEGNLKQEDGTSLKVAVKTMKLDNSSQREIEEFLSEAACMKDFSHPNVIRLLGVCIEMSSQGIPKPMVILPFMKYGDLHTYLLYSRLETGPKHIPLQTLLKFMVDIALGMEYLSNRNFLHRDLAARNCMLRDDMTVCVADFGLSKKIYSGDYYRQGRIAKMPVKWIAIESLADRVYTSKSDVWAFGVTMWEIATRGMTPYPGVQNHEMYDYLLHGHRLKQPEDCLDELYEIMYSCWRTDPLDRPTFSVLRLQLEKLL
Experimental: The biochemical potency of Compound 1 to inhibit the enzymatic activity of TAM family members was investigated by TR-FRET assays using recombinant phosphorylated forms of the kinase domains for AXL, MER and TYRO3.
Phospho-AXL (pAXL), cMER and Tyro3 kinase activities were measured by time-resolved fluorescence energy transfer (TR-FRET) assays. Autophosphorylation of AXL was carried out before the kinase assay by incubating the recombinant AXL protein (ThermoFisher Scientific; #PV4275) in buffer containing 50 mM Tris, pH 7.5, 0.2 mg/mL AXL, 5 mM ATP, 20 mM MgCl2 and 2 mM dithiothreitol (DTT) at room temperature for 1 hour. […] The plate was incubated for 30 minutes at room temperature, and homogenous time resolved fluorescence (HTRF) signal was measured on a PheraStar FS plate reader (BMG Labtech, Ortenberg, Germany). Percent inhibition was calculated for each concentration, and half maximal inhibitory concentration (IC50) value was generated from curve fitting with GraphPad Prism software (San Diego, Calif.).
Compound reversibility was determined by measuring the recovery of cMER enzymatic activity after a rapid and large dilution of the cMER-inhibitor complex. cMER, ATP, and biotin-labeled peptide substrate were diluted in kinase assay buffer containing 50 mM HEPES, pH 7.5, 10 mM MgCl2, 1 mM EGTA, 0.01% NP-40, and 2 mM DTT. […]

SMILES: CC(C)C(=O)N1CCC(c2cc(-c3ccc(NC(=O)c4cn(C(C)C)c(=O)n(-c5ccccn5)c4=O)cc3)c3c(N)ncnn23)CC1 [Compound 1, N-(4-(4-Amino-7-(1-isobutyrylpiperidin-4-yl)pyrrolo[1,2-f][1,2,4]triazin-5-yl)phenyl)-1-isopropyl-2,4-dioxo-3-(pyridin-2-yl)-1,2,3,4-tetrahydropyrimidine-5-carboxamide]
- selectivity against TYRO3 (cellular) ([1]; BAF3 transfectants): > 30 fold
- IC50 ([1]; Mus musculus, BaF3, 48 hours, 2% FBS, read-out: IC50, growth of TYRO3-expressing BAF3 cells): 498 ± 161 nM
- IC50 (parental BAF3 cells): > 4000 nM
- mode of inhibition with respect to ATP concentration (MER; MER kinase assay, IC50 at 25, 100, 300, 1000 μM ATP (FIG. 1)): ATP-competitive mode of inhibition
- IC50 (MER; average from multiple lots, n=25, read-out: IC50 against MER): 3.17 ± 1.97 nM
